Converted amounts (≈) assume the structure as drawn. “And” between values parts separate entries of the source, which are not always exact repeats. Equal entries are not always repeated. Where two headings read alike, the source gives them in different places.
How the values were obtained:
[1] = test system: Escherichia Coli ATCC 25922; experiment: MIC by serial dilution, Strain C; type: cell-based; settings: ATCC25922, range between last concentration with growth and first without growth
Method: (§1) The MICs were calculated using the serial dilution method, and are expressed as the range between the last concentration at which the bacterial strain grows and the first concentration at which the strain tested no longer grows.

Escherichia Coli NK12 = experiment: MIC by serial dilution, Strain D; type: cell-based; settings: COLINK12, range between last concentration with growth and first without growth
Method: as §1

Enterococcus = experiment: qPCR count of intestinal bacteria in rat stool after 5 days oral treatment; type: in vivo, Sprague Dawley rats; settings: for cell count average value Enterococcus: group average of cell counts; for Ct Values Eterococcus / Cell Count Eterococcus: individual rats, listed as RFX; for Ct Values Eterococcus: average of three qPCR analyses; for Cell Count Eterococcus: derived from Ct values
Method: (§2) The stools were collected at T0 and the day after the last treatment.
(§3) The two products were first dissolved in DMSO at the concentration of 100 mg/mL (stock solution), then to 0.5 mL of each solution 2.0 mL of PEG 400 and 7.5 mL of saline solution were added, under stirring. A stable suspension at the nominal concentration of 5 mg/mL is obtained. A volume of 10 mL/kg, equal to 50 mg/kg, is administered.
(§4) The detection method is based on isolation of the total genomic DNA from each stool sample, using a specific commercial kit. After the quali-quantitative evaluation of the DNA, the same DNA samples were stored at −20° C. Quantitative analyzes were performed using qPCR Real Time with the use of a DNA primer couples specific for Bifidobacterium, Enterococcus, Enterobacter, and Lactobacillus species.
(§5) DNA isolation was performed using the PowerFecal® DNA Isolation Kit (MO BIO Laboratories) commercial kit on a sample of 250 mg stool, each time. After isolation, the DNA samples were evaluated by spectrophotometric analysis. Each DNA sample was quantified in the 60-100 ng/μL range (high in proteins and sugars), as typical for stool-derived DNA.
(§6) Each sample was evaluated three times. For each DNA sample and for each specific DNA primer couple, the analysis provided a CT value that resulted to be correlated to the amount of DNA specific to the bacterial species, therefore closely correlated to the number of bacterial cells of that species present in the stool sample.
(§7) For relative quantification, a “generalized linear mixed model (GLMM) under Poisson-lognormal error” was applied. MCMC.qPCR R package was used to convert CT values into bacterial cell numbers. For the conversion, the formula: Number of cells=E(Ct1−Ct) was used, where E represents the efficiency of amplification, which in the present case assumes the value of 2. Ct1 represents the number of qPCR cycles needed to detect a single target molecule (in this study Ct1 is supposed to have the value of 39).
(§8) The Markov Chain Monte Carlo algorithm (MCMC) was used to estimate the effect of time on the development levels of each microbial genus. The GLMM method was used to verify if the levels of each bacterial genus at T0 and T5 differ. Furthermore, a statistical analysis to evaluate the significance of the differences between the T0 and T5 values was performed.

Bifidobacterium = experiment: as above; type: in vivo, Sprague Dawley rats; settings: for cell count average value Bifidobacterium: group average of cell counts; for Ct Values Bifidobacterium / Cell Count Bifidobacterium: individual rats, listed as RFX; for Ct Values Bifidobacterium: average of three qPCR analyses; for Cell Count Bifidobacterium: derived from Ct values
Method: as §2, §3, §4, §5, §6, §7, §8

Enterobacter = experiment: as above; type: in vivo, Sprague Dawley rats; settings: for cell count average value Enterobacter: group average of cell counts; for Ct Values Enterobacter / Cell Count Enterobacter: individual rats, listed as RFX; for Ct Values Enterobacter: average of three qPCR analyses; for Cell Count Enterobacter: derived from Ct values
Method: as §2, §3, §4, §5, §6, §7, §8

Lactobacillus = experiment: as above; type: in vivo, Sprague Dawley rats; settings: for cell count average value Lactobacillus: group average of cell counts; for Ct Values Lactobacillus / Cell Count Lactobacillus: individual rats, listed as RFX; for Ct Values Lactobacillus: average of three qPCR analyses; for Cell Count Lactobacillus: derived from Ct values
Method: as §2, §3, §4, §5, §6, §7, §8

[2] = Pharmacokinetics after intravenous administration in male rats; settings: Sprague-Dawley, rat, in vivo, 1 mg/kg
Method: (§9) To 0.250 mL of this solution, 4.750 mL of saline are added, obtaining a final 0.2 mg/mL (5% DMSO, 95% saline) solution. A volume of 5 mL/Kg is administered to 3 rats in each group to have a 1 mg/Kg dose for each of the two products. • Oral Administration of RFX and Derivative 3: the two products were dissolved in DMSO obtaining two solutions having a 60 mg/mL concentration (stock solutions). To 0.5 mL of each solution, 2.0 mL of PEG 400 and 7.5 mL of saline solution were added under stirring, obtaining a stable suspension with a nominal concentration of 3 mg/mL. A volume equal to a 30 mg/kg dose is administered to the animal.
(§10) Male Sprague Dawley rats, weighing between 250 and 300 g, were used in the study. The animals were housed and observed before the experiment according to an approved GMP protocol according to Italian legislation.
(§11) The rats were divided into three groups: • Group 1: i.v. treatment • Group 2: oral treatment for blood sampling • Group 3: oral treatment for urine and stool collection
(§12) Plasma: the calibration curve and the QC samples were prepared in untreated rat plasma, adding 5 μL of each stock solution to 45 μL of untreated rat plasma. The 50 μL of plasma obtained were diluted up to 100 μL with cold acetonitrile containing the Internal Standard (I.S.) at the final concentration of 50 ng/mL, and centrifuged for 5 min. at 9000 rpm at 5° C. The supernatant was transferred to a 96-well plate for analysis. The samples of Groups 1 and 2 were similarly prepared using 50 μL of plasma from the treated rats.
(§13) A non-compartmental analysis was applied, and the following pharmacokinetic parameters were considered for each subject:
(§14) The concentration data were extrapolated using the Analyst™ 6.1 software (Applied Biosystems); the AUCs were calculated using a linear-trapezoidal method, and a weight uniformity was performed as the first approach. The concentration/time graphs were performed after logarithmic transformation of the results using PK Solver 2.0 software, Excel 2007 Microsoft add in.

[3] = test system: Staphylococcus aureus IM149; experiment: MIC by serial dilution, Strain A; type: cell-based; settings: range between last concentration with growth and first without growth
Method: as §1

[4] = cited from earlier work
[5] = test system: Bacillus Subtilis ATCC 6633; experiment: MIC by serial dilution, Strain B; type: cell-based; settings: ATCC6633, range between last concentration with growth and first without growth
Method: as §1

[6] = Pharmacokinetics after oral administration in male rats; settings: Sprague-Dawley, rat, in vivo
Method: as §9, §10, §11, §12, §13, §14

[7] = T5 (day after 5 days oral 50 mg/kg)
[8] = T5 (day after 5 days oral 50 mg/kg), 50 mg/kg
[9] = oral treatment 5 days, 50 mg/kg, T5 vs T0

MIC [1]: 2 to 4 µg/mL (≈ 2.54 to 5.09 µM) | MIC (Escherichia Coli NK12): 4 to 8 µg/mL (≈ 5.09 to 10.2 µM) | AUC(0-inf) [2]: 1990 ng·h/mL | AUC(0-t) [2]: 1990 ng·h/mL | C0 [2]: 3760 ng/mL | Cl_obs [2]: 9.8 mL/min/kg | Cmax [2]: 2880 ng/mL | MRT inf [2]: 1.18 h | Tmax [2]: 5 min | Vss_obs [2]: 0.757 L/kg | half-life [2]: 2.45 h | MIC [3]: 0.25 to 0.5 µg/mL (≈ 0.318 to 0.636 µM) | MIC [5]: 0.125 to 0.25 µg/mL (≈ 0.159 to 0.318 µM) | bioavailability [6]: 0.4% | AUC(0-inf) ([6]; po, 30 mg/kg): 222 ng·h/mL | AUC(0-t) ([6]; po, 30 mg/kg): 197 ng·h/mL | Cmax ([6]; po, 30 mg/kg): 57.1 ng/mL | MRT inf ([6]; po, 30 mg/kg): 9.22 h | Tmax ([6]; po, 30 mg/kg): 0.5 h | half-life ([6]; po, 30 mg/kg): 9.63 h
SMILES: CO[C@H]1/C=C/O[C@@]2(C)Oc3c(C)c(O)c4c(O)c(c5c(nc6cc(C)ccn65)c4c3C2=O)NC(=O)/C(C)=C\C=C\[C@H](C)[C@H](O)[C@@H](C)[C@@H](O)[C@@H](C)[C@H](OC(C)=O)[C@@H]1C [Rifaximin, reference compound]
cell count average value Enterococcus (Enterococcus; T0 (before treatment)): 9.2 × 10^6 | Ct Values Eterococcus (Enterococcus; T0 (before treatment)): 23.236 and 22.741 and 14.976 and 16.124 and 18.925 and 14.203 | Cell Count Eterococcus (Enterococcus; T0 (before treatment)): 5.56E+04 cells per mg of stool and 7.84E+04 cells per mg of stool and 1.71E+07 cells per mg of stool and 7.70E+06 cells per mg of stool and 1.10E+06 cells per mg of stool and 2.91E+07 cells per mg of stool | cell count average value Enterococcus (Enterococcus; [7]): 28 × 10^4 | Ct Values Eterococcus (Enterococcus; [8]): 23.676 and 24.09 and 24.608 and 23.121 and 25.293 and 26.739 | Cell Count Eterococcus (Enterococcus; [8]): 4.10E+04 cells per mg of stool and 3.06E+04 cells per mg of stool and .15E+04 cells per mg of stool and 6.03E+04 cells per mg of stool and 1.34E+04 cells per mg of stool and 4.91E+03 cells per mg of stool | drop in cell count for the Enterococcus genus (Enterococcus; [9]): about 100 times | cell count average value Bifidobacterium (Bifidobacterium; T0 (before treatment)): 6.87 × 10^6 | Ct Values Bifidobacterium (Bifidobacterium; T0 (before treatment)): 15.880 and 14.080 and 22.166 and 21.412 and 24.420 and 23.158 | Cell Count Bifidobacterium (Bifidobacterium; T0 (before treatment)): 9.11E+06 cells per mg of stool and 3.17E+07 cells per mg of stool and 1.17E+05 cells per mg of stool and 1.97E+05 cells per mg of stool and 2.45E+04 cells per mg of stool and 5.87E+04 cells per mg of stool | cell count average value Bifidobacterium (Bifidobacterium; [7]): 8.26 × 10^6 | Ct Values Bifidobacterium (Bifidobacterium; [8]): 13.747 and 16.114 and 24.545 and 18.232 and 27.172 and 26.104 | Cell Count Bifidobacterium (Bifidobacterium; [8]): 4.00E+07 cells per mg of stool and 7.75E+06 cells per mg of stool and 2.25E+04 cells per mg of stool and 1.79E+06 cells per mg of stool and 3.64E+03 cells per mg of stool and 7.62E+03 cells per mg of stool | decrease in the bacterial count for the Bifidobacterium genus (Bifidobacterium; [9]): no significant differences | cell count average value Enterobacter (Enterobacter; T0 (before treatment)): 2.69 × 10^6 | Ct Values Enterobacter (Enterobacter; T0 (before treatment)): 17.704 and 23.688 and 16.284 and 17.749 and 17.616 and 18.371 | Cell Count Enterobacter (Enterobacter; T0 (before treatment)): 2.57E+06 cells per mg of stool and 4.07E+04 cells per mg of stool and 6.89E+06 cells per mg of stool and 2.50E+06 cells per mg of stool and 2.74E+06 cells per mg of stool and 1.62E+06 cells per mg of stool | cell count average value Enterobacter (Enterobacter; [7]): 5.98 × 10^5 | Ct Values Enterobacter (Enterobacter; [8]): 20.143 and 25.467 and 17.828 and 21.542 and 23.096 and 20.066 | Cell Count Enterobacter (Enterobacter; [8]): 4.75E+05 cells per mg of stool and 1.19E+04 cells per mg of stool and 2.36E+06 cells per mg of stool and 1.80E+05 cells per mg of stool and 6.13E+04 cells per mg of stool and 5.01E+05 cells per mg of stool | drop in cell count for the Enterobacter genus (Enterobacter; [9]): about 10 times | cell count average value Lactobacillus (Lactobacillus; T0 (before treatment)): 1.3 × 10^6 | Ct Values Lactobacillus (Lactobacillus; T0 (before treatment)): 20.565 and 20.928 and 19.111 and 20.465 and 17.200 and 17.852 | Cell Count Lactobacillus (Lactobacillus; T0 (before treatment)): 3.55E+05 cells per mg of stool and 2.75E+05 cells per mg of stool and 9.71E+05 cells per mg of stool and 3.80E+05 cells per mg of stool and 3.65E+06 cells per mg of stool and 2.32E+06 cells per mg of stool | cell count average value Lactobacillus (Lactobacillus; [7]): 6.6 × 10^5 | Ct Values Lactobacillus (Lactobacillus; [8]): 20.364 and 19.891 and 18.746 and 19.308 and 19.872 and 20.306 | Cell Count Lactobacillus (Lactobacillus; [8]): 4.07E+05 cells per mg of stool and 5.65E+05 cells per mg of stool and 1.25E+06 cells per mg of stool and 8.47E+05 cells per mg of stool and 5.73E+05 cells per mg of stool and 4.24E+05 cells per mg of stool | change in cell count for the Lactobacillus genus (Lactobacillus; [9]): no significant differences | solubility ([4]; in the presence of 20 mM bile acids): 72.6% | solubility ([4]; in water): 0.6%
